Entries after “also recorded” stand apart in the source; their conditions may differ.
Experiments:
TCR of MAIT cells = test: co-expression reporter cell assay: NFAT-GFP expression on activation of MAIT TCR; type: cell-based; conditions: 37°C, 6-20 hr, GFP by flow cytometry
Text: (§1) MAIT TCR genes and MR1 molecules genes were synthesized from mouse (Tiloy et al, J Exp Med. 1999) or human (4L4T, Protein Data Bank) and inserted into retroviral vectors (pMX-IRES-ratCD2, pMX-IRES-humanCD8), respectively. These plasmids were co-introduced into Phoenix packaging cells by using PEI MAX (Polysciences). […] MAIT TCR and MR1 co-expressing T cells (hereinafter also referred to as "co-expression reporter cells") were selected using antimouse TCRβ (H57-597), anti-human CD3 (HIT3a), and anti-human/mouse/rat MR1 (26.5) antibodies.
(§2) The validation experiment evaluated GFP expression and MR1 molecule surface expression 6 hr after stimulation of co-expression reporter cells with vehicle control, 5-OP-RU, and Ac-6-FP. GFP was evaluated by flow cytometry. MR1 molecule surface expression was represented by the MFI value of the stimulated cells.
(§3) In the above-mentioned screening, to stimulate "co-expression reporter cells," tissue extract samples and synthetic compounds were dissolved in water and added to each well of a 96-well plate in the absence of methylglyoxal. Some water-insoluble samples were dissolved in ethanol or chloroform/methanol (2:1, vol/vol) and coated onto the plates. "Co-expression reporter cells" (1-3×10^4 cells/100 µL/well) were cultured at 37°C for 6-20 hr, and the expression of GFP and MR1 molecules was analyzed by flow cytometry.

MR1 molecule = test: co-expression reporter cell assay: MR1 surface expression by flow cytometry; type: cell-based; conditions: co-expression reporter cells, 37°C, 6-20 hr, MFI by flow cytometry
Description: These plasmids were co-introduced into Phoenix packaging cells by using PEI MAX (Polysciences).
as §2, §3

[1] = tested on: Human peripheral blood mononuclear cells (PBMCs); test: sc-TCR-RNA-seq analysis of stimulated PBMCs; type: cell-based; conditions: PBMCs stimulated for several days; for gene expression signature (induced genes): in contrast to 5-OP-RU; for TCR expressed by surviving MAIT cells: TRAV1-2-TRAJ33/12/20:TRBV6-4/6-1/20-1
Description: Human peripheral blood mononuclear cells (PBMCs) were stimulated with CA7S and CA3S for several days, and then sc-TCR-RNA-seq analysis was performed.

[2] = tested on: MAIT TCRs derived from mouse (m); test: reporter cell assay with mouse-derived MAIT TCR, mouse or human MR1; type: cell-based; conditions: regardless of the species of the MR1 molecule
Text: as §1
as §3, with “cytometry. The same procedure was performed in the subsequent Examples. • (2) To determine the chemical structure of the activation molecule contained in fraction #84, this fraction was further purified by hydrophilic interaction chromatography (HILIC), and a single fraction (named #84-45) was recovered. […]” for “cytometry.”

[3] = tested on: MAIT TCRs derived from human (h); test: reporter cell assay with human-derived MAIT TCR, mouse or human MR1; type: cell-based; conditions: regardless of the species of the MR1 molecule
Text: as §1
as §3, with “cytometry. The same procedure was performed in the subsequent Examples. • (2) To determine the chemical structure of the activation molecule contained in fraction #84, this fraction was further purified by hydrophilic interaction chromatography (HILIC), and a single fraction (named #84-45) was recovered. […]” for “cytometry.”

[4] = tested on: MAIT cells in MR1-5-OP-RU tetramer-enriched thymocytes; test: flow cytometry of thymic MAIT cells after administration to Sult2a-deficient mice; type: in vivo, mouse; conditions: 2-4 week old Sult2a-deficient mice administered with CA7S versus not administered
Description: The expression of MAIT cells in MR1-5-OP-RU tetramer-enriched thymocytes was analyzed by flow cytometry in 2-4 week old wild-type mice, Sult2a-deficient mice administered with CA7S, and Sult2a-deficient mice not administered with CA7S.
The data were obtained from experiments using three or more mice per group. *P<0.05, **P<0.01, P***<0.005, one-way ANOVA and Tukey's multiple comparison test were used.

| Compound | activation of the TCR of MAIT cells (GFP expression) (TCR of MAIT cells) | expression of MR1 molecules on the T cell surface (MR1 molecule) | other results |
| --- | --- | --- | --- |
| CC(=O)C=Nc1c(NC[C@H](O)[C@H](O)[C@H](O)CO)[nH]c(=O)[nH]c1=O [Analog 5-OP-RU, 5-(2-Oxopropylidene-amino)-6-D-ribitylaminouracil, reference compound] | dose-dependently enhanced GFP expression | – | – |
| C[C@H](CCC(=O)O)[C@H]1CC[C@H]2[C@@H]3[C@H](O)C[C@@H]4C[C@H](OS(=O)(=O)O)CC[C@]4(C)[C@H]3C[C@H](O)[C@]12C [CA3S, cholic acid 3-sulfate] | activated MAIT reporter cells in the presence of MR1 molecules | similarly increased the expression of the MR1 molecule on the T cell surface | gene expression signature (induced genes) [1]: induced genes involved in homeostasis maintenance, such as IL7R, KLF2, and TCF7; TCR expressed by surviving MAIT cells [1]: expressed a representative MAIT TCR |
| C[C@H](CCC(=O)O)[C@H]1CC[C@H]2[C@@H]3[C@H](OS(=O)(=O)O)C[C@@H]4C[C@H](O)CC[C@]4(C)[C@H]3C[C@H](O)[C@]12C [CA7S, cholic acid 7-sulfate] | activated reporter cells expressing MAIT TCR; also recorded: weak agonist | similarly increased the expression of the MR1 molecule on the T cell surface | activation of MAIT TCR derived from mouse (m) [2]: activated; activation of MAIT TCR derived from human (h) [3]: activated; gene expression signature (induced genes) [1]: induced genes involved in homeostasis maintenance, such as IL7R, KLF2, and TCF7; TCR expressed by surviving MAIT cells [1]: expressed a representative MAIT TCR; MAIT cells in thymocytes [4]: restored MAIT cells |
| C[C@H](CCC(=O)O)[C@H]1CC[C@H]2[C@@H]3[C@H](O)C[C@@H]4C[C@H](O)CC[C@]4(C)[C@H]3C[C@H](OS(=O)(=O)O)[C@]12C [CA12S] | did not | similarly increased the expression of the MR1 molecule on the T cell surface | – |
| C[C@H](CCC(=O)O)[C@H]1CC[C@H]2[C@@H]3[C@H](O)C[C@@H]4C[C@H](O)CC[C@]4(C)[C@H]3C[C@H](O)[C@]12C [CA, cholic acid, reference compound] | did not activate | did not activate | – |
| C[C@H](CCC(=O)O)[C@H]1CC[C@H]2[C@@H]3CC[C@@H]4C[C@H](OS(=O)(=O)O)CC[C@]4(C)[C@H]3C[C@H](O)[C@]12C [DCA3S, deoxy-CA3S, reference compound] | did not show activity in reporter cells | – | – |
| C[C@H](CCC(=O)O)[C@H]1CC[C@H]2[C@@H]3CC[C@@H]4C[C@H](OS(=O)(=O)O)CC[C@]4(C)[C@H]3CC[C@]12C [LCA3S, litho-CA3S, reference compound] | did not show activity in reporter cells | – | – |
| C[C@H](CCC(=O)NCCS(=O)(=O)O)[C@H]1CC[C@H]2[C@@H]3[C@H](O)C[C@@H]4C[C@H](OS(=O)(=O)O)CC[C@]4(C)[C@H]3C[C@H](O)[C@]12C [TCA3S] | showed no activity | showed no activity | – |
| C[C@H](CCC(=O)NCCS(=O)(=O)O)[C@H]1CC[C@H]2[C@@H]3[C@H](OS(=O)(=O)O)C[C@@H]4C[C@H](O)CC[C@]4(C)[C@H]3C[C@H](O)[C@]12C [TCA7S] | showed no activity | showed no activity | – |
| C[C@H](CCC(=O)NCCS(=O)(=O)O)[C@H]1CC[C@H]2[C@@H]3CC[C@@H]4C[C@H](OS(=O)(=O)O)CC[C@]4(C)[C@H]3CC[C@]12C [TLCA3S, taurolitho-CA3S, reference compound] | did not show activity in reporter cells | – | – |

Reference: patent EP4803630A1, “CELL FOR IDENTIFYING MAIT CELL LIGAND, AND METHOD FOR SCREENING MAIT CELL LIGAND USING SAID CELL” (The University of Osaka, priority 2023, dated 2025)
